Reference: patent US11274106B2, “Topoisomerase inhibitors with antibacterial and anticancer activity” (THE BOARD OF TRUSTEES OF THE UNIVERSITY OF ILLINOIS, priority 2017, dated 2022)
≈ marks a conversion by molar mass, not a printed value. Read-outs that look alike come from different tables or passages of the source.

Key:
[1] = system: E. coli; assay: Antibacterial MIC, microbroth dilution, E. coli; assay type: cell-based; details: for MIC: Escherichia coli
Experimental: (§1) To investigate this possibility, the antibacterial effects of the DNM derivatives was assessed against strains of E. coli, S. aureus, and MRSA using the microbroth dilution method (Table 2).

[2] = system: S. aureus; assay: Antibacterial MIC, microbroth dilution, S. aureus; assay type: cell-based; details: for MIC: Staphylococcus aureus
Experimental: as §1

[3] = system: MDA-MB-231 triple negative breast cancer cells; assay: Antiproliferative SRB assay, MDA-MB-231; assay type: cell-based; details: for IC50: mean ± SEM
Experimental: FIG. 1. […] Cell death measured by SRB assay after 72 hour of compound exposure (n≥3 biological replicates, error bars show SEM). IC50 values given as mean±SEM from ≥3 biological replicates.
To investigate the feasibility of developing a class of antitumor antibiotics based upon the DNM scaffold, the ability of the DNM to exert an antiproliferative effect against MDA-MB-231 breast cancer cells was evaluated.

[4] = system: MRSA; assay: Antibacterial MIC, microbroth dilution, MRSA; assay type: cell-based, S. aureus; details: Staphylococcus aureus, MRSA; microbroth dilution
Experimental: as §1

[5] = system: Jurkat; assay: Cell viability Alamar Blue assay, Jurkat; assay type: cell-based; details: Homo sapiens, 72 h, Leukemia, mean ± SEM
From the text: (§2) Topoisomerase inhibitors such as DOX are used as single agent and in combination therapy to treat a wide-range of cancer types.

[6] = system: HeLa; assay: Antiproliferative SRB assay, HeLa; assay type: cell-based; details: Homo sapiens, 72 h, Ovarian cancer (footnote e), mean ± SEM
From the text: as §2

[7] = system: H460; assay: Antiproliferative SRB assay, H460; assay type: cell-based; details: Homo sapiens, NCI-H460, 72 h, Lung cancer, mean ± SEM
From the text: as §2

[8] = system: ES-2; assay: Antiproliferative SRB assay, ES-2; assay type: cell-based; details: Homo sapiens, ES-2, 72 h, Cervical cancer (footnote f), mean ± SEM
From the text: as §2

[9] = system: panel of cancer cells; assay: Average over panel of 10 cancer cell lines; assay type: cell-based; details: 72 hour, read-out: Average (mean) IC50 over the cell line panel
From the text: as §2

[10] = system: IMR32; assay: Antiproliferative SRB assay, IMR32; assay type: cell-based; details: Homo sapiens, IMR-32, 72 h, Neuroblastoma, mean ± SEM
From the text: as §2

[11] = system: HOS; assay: Antiproliferative SRB assay, HOS; assay type: cell-based; details: Homo sapiens, 72 h, Osteosarcoma, mean ± SEM
From the text: as §2

[12] = system: HL-60; assay: Cell viability Alamar Blue assay, HL-60; assay type: cell-based; details: Homo sapiens, HL-60, 72 h, Leukemia, mean ± SEM
From the text: as §2

[13] = system: BT-474; assay: Antiproliferative SRB assay, BT-474; assay type: cell-based; details: Homo sapiens, BT-474, 72 h, Breast cancer, mean ± SEM
From the text: as §2

[14] = system: HCT-116; assay: Antiproliferative SRB assay, HCT-116; assay type: cell-based; details: Homo sapiens, HCT-116, 72 h, Colon cancer, mean ± SEM
From the text: as §2

[15] = biological target: T1, Top2cc (Homo sapiens, UniProt P11388); assay: ICE assay for Top2α-DNA complexes in H460 cells; assay type: cell-based; details: 50 μM
T1 construct: endogenous in cells; host or cells: H460
From the text: FIG. 3. DNM derivatives are dual Top1/Top2 inhibitors with different modes of inhibition. (a) Inhibition of decatenating ability of Top2α with increasing concentrations of ETP, 6DNM-NH3, 6DNM-Pyr, and Ph-6DNM-NH3. K, kinetoplast DNA; OC, open circular; R, relaxed. (b) Inhibition of relaxing ability of Top1 with increasing concentrations of CPT, 6DNM-NH3, 6DNM-Pyr, and Ph-6DNM-NH3. R, relaxed; S, supercoiled. (c) Detection of Top2a-DNA using the ICE Assay. Genomic DNA ([…]) of H460 cells treated with drugs (50 μM, 30 min) was applied to nitrocellulose membrane and immunoblotted for Top2a. (d) Detection of Top1-DNA adducts using ICE Assay. Same procedure as (c) using 1 μg of DNA. (e) Inhibition of ETP-induced poisoning of Top2a. H460 cells treated with indicated concentrations of inhibitor for 30 min prior to treatment with ETP (50 μM). Detection of Top2α as in (c).
The in vivo complex of enzyme (ICE) assay can be used to distinguish poisons from catalytic inhibitors. The ICE assay consists of isolating the genomic DNA of cells treated with small molecules in a manner the preserves covalent DNA-protein complexes and applying it to nitrocellulose membranes. Because topoisomerase poisons stabilize the cleavage complexes, DNA-protein complexes can be detected by immunoblotting for specific topoisomerases, whereas catalytic inhibitors produce no such result. To determine if DNM derivatives are acting as poisons or catalytic inhibitors, H460 human lung cells were exposed to 50 μM of the Top2 poison ETP, Ph-6DNM-NH3, 6DNM-NH3, and 6DNM-Pyr and assessed for their ability to stabilize Top2cc. […] In a similar fashion, next investigated was the mode of Top1 inhibition using the ICE assay (FIG. 3b).

[16] = Homo sapiens, MDA-MB-231, 72 h, SRB assay, 72 hour compound exposure, read-out: MDA-MB-231 IC50
[17] = SRB assay, 72 hour compound exposure, read-out: MDA-MB-231 IC50
[18] = Homo sapiens, MDA-MB-231, 72 h, Breast cancer, SRB assay, read-out: 72 hour IC50, MDA-MB-231

T1 sequence (P11388 whole entry): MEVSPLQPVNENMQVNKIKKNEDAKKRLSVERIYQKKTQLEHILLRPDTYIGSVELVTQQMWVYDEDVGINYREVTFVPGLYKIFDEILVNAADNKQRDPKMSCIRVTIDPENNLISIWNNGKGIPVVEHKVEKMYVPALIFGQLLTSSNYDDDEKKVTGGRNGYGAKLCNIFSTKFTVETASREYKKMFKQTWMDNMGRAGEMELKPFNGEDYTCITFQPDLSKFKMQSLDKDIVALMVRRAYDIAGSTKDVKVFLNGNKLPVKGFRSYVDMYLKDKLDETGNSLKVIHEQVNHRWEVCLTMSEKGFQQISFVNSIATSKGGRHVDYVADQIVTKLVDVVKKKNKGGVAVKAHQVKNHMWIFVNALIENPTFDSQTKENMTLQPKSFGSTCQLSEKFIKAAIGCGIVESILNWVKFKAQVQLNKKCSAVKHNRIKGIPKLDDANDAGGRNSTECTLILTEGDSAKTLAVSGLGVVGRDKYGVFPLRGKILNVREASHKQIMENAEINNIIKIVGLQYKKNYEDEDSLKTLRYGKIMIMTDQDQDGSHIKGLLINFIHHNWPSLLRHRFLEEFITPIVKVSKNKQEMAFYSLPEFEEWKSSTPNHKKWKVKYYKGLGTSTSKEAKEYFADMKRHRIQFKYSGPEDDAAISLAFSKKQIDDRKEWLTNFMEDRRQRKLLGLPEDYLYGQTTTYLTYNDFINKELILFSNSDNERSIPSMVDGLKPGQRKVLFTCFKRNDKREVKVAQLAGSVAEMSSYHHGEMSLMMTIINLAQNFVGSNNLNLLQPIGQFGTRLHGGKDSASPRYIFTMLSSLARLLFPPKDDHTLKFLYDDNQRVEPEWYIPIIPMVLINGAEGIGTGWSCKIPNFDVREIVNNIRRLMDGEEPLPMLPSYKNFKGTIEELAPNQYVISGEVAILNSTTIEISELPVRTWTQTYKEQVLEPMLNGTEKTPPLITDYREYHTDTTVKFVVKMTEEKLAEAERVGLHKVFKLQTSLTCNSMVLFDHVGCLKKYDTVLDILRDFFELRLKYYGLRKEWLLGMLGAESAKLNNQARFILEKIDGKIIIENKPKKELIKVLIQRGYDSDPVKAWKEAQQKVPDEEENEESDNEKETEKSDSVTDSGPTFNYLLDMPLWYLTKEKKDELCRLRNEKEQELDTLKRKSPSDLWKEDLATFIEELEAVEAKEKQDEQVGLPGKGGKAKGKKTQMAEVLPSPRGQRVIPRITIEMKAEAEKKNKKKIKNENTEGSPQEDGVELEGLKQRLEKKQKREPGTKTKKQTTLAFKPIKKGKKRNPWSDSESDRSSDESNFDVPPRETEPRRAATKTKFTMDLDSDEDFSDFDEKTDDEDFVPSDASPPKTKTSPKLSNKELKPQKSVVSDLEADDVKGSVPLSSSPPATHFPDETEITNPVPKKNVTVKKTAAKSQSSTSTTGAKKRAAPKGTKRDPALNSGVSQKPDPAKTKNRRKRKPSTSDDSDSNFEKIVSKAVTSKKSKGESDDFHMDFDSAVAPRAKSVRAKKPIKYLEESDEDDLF

Compound | MIC [1] [µg/mL] | MIC [2] [µg/mL] | IC50 [3, 16] [nM] | IC50 [5] [nM] | IC50 [6] [nM] | IC50 [7] [nM] | IC50 [3, 18] [nM] | IC50 [9] [nM] | IC50 [12] [nM] | IC50 [13] [nM] | E. coli MIC [1] [µg/mL] | S. aureus MIC [2] [µg/mL] | IC50 [3, 17] [nM] | IC50 [8] [nM] | IC50 [10] [nM] | IC50 [11] [nM] | also measured
Cc1cc(=O)n2c3c(c4c(cc13)c1ccccc1c(=O)n4C)OCC2 [Compound 14] | > 16 | 2 (≈ 6.02 µM) | 930 ± 400 |  |  |  |  |  |  |  |  |  |  |  |  |  | MIC [4]: 0.5 µg/mL (≈ 1.5 µM)
Cc1cc(=O)n2c3c(c4c(cc13)c1ccccc1c(=O)n4C)OCC2CN (stereo not drawn) [Compound 16] |  |  |  |  |  |  |  |  |  |  | 0.25 | 1 | 30 ± 6 |  |  |  | 
Cc1cc(=O)n2c3c(c4c(cc13)c1ccccc1c(=O)n4C)OCC2CN (stereo not drawn) [Compound 17] |  |  |  |  |  |  |  |  |  |  | 2 | 4 | 130 ± 30 |  |  |  | 
Cc1cc(=O)n(C)c2c3c4c(cc12)c(C)cc(=O)n4C(CN)CO3 (stereo not drawn) [Compound 18] |  |  |  |  |  |  |  |  |  |  | 0.25 | 0.5 | 200 ± 10 |  |  |  | 
Cc1cc(=O)n(C)c2c3c4c(cc12)c(C)cc(=O)n4C(CN)CO3 (stereo not drawn) [Compound 19] |  |  |  |  |  |  |  |  |  |  | >16 | 32 | 4000 ± 800 |  |  |  | 
COc1cccc2c1C(=O)c1c(O)c3c(c(O)c1C2=O)C[C@@](O)(C(=O)CO)C[C@@H]3O[C@H]1C[C@H](N)[C@H](O)[C@H](C)O1 [Doxorubicin, doxorubicin, reference compound] |  |  |  | 17 ± 3 | 24 ± 9 | 6.1 ± 1 | 21 ± 2 | 55 | 84 ± 11 | 260 ± 70 |  |  |  | 32 ± 3 | 2.9 ± 0.4 | 19 ± 7 | Antiproliferative effect against MDA-MB-231 cells ([3]; FIG. 1, SRB assay, 72 hour): sensitive
COc1cc([C@@H]2c3cc4c(cc3[C@@H](O[C@@H]3O[C@@H]5CO[C@@H](C)O[C@H]5[C@H](O)[C@H]3O)[C@H]3COC(=O)[C@H]23)OCO4)cc(OC)c1O [ETP, etoposide, reference compound] |  |  |  |  |  |  |  |  |  |  |  |  |  |  |  |  | Accumulation of Top2cc (ICE assay) [15]: resulted in the accumulation of Top2cc; Antiproliferative effect against MDA-MB-231 cells ([3]; FIG. 1, SRB assay, 72 hour): sensitive
O=C(O)c1cn(C2CC2)c2cc(N3CCNCC3)c(F)cc2c1=O [ciprofloxacin, reference compound] |  |  |  |  |  |  |  |  |  |  |  |  |  |  |  |  | Antiproliferative effect against MDA-MB-231 cells ([3]; doses as high as 50 μM): only minimal effects

The next lines start with results.

MIC [1] [µg/mL] | MIC [2] [µg/mL] | IC50 [3, 16] [nM] | IC50 [5] [nM] | IC50 [6] [nM] | IC50 [7] [nM] | IC50 [3, 18] [nM] | IC50 [9] [nM] | IC50 [12] [nM] | IC50 [13] [nM] | Compound | E. coli MIC [1] [µg/mL] | S. aureus MIC [2] [µg/mL] | IC50 [3, 17] [nM] | IC50 [8] [nM] | IC50 [10] [nM] | IC50 [11] [nM] | also measured
> 16 | > 16 | 1600 ± 600 |  |  |  |  |  |  |  | Cc1cc(=O)n(-c2ccccc2)c2c3c4c(cc12)c(C)cc(=O)n4C(CN)CO3 (stereo not drawn) [Compound 13] |  |  |  |  |  |  | 
4 (≈ 10.2 µM) | 0.5 (≈ 1.27 µM) | 17 ± 1 | 33 ± 4 | 46 ± 2 | 11 ± 2 | 17 ± 1 | 31 | 55 ± 11 | 90 ± 10 | Cc1cc(=O)n(C)c2c3c4c(cc12)c(C)cc(=O)n4C(CN1CCCCC1)CO3 (stereo not drawn) [Compound 21] |  |  |  | 22 ± 6 | 6 ± 1.6 | 21 ± 3 | IC50 [14]: 8 ± 1 nM
1 (≈ 2.41 µM) | 0.25 (≈ 0.602 µM) | 31 ± 3 | 69 ± 7 | 46 ± 2 | 7.2 ± 0.6 | 31 ± 3 | 55 | 94 ± 6 | 235 ± 1 | Cc1cc(=O)n2c3c(c4c(cc13)c1ccccc1c(=O)n4C)OCC2CN1CCCC1 (stereo not drawn) [Compound 22] |  |  |  | 23 ± 4 | 4.9 ± 0.1 | 16 ± 0.4 | IC50 [14]: 23 ± 3 nM
2 (≈ 4.66 µM) | 0.5 (≈ 1.16 µM) | 79 ± 7 | 240 ± 40 | 136 ± 5 | 24 ± 2 | 79 ± 7 | 214 | 440 ± 130 | 1000 ± 100 | Cc1cc(=O)n2c3c(c4c(cc13)c1ccccc1c(=O)n4C)OCC2CN1CCCCC1 (stereo not drawn) [Compound 23] |  |  |  | 67 ± 8 | 20 ± 0.2 | 55 ± 1 | IC50 [14]: 79 ± 10 nM
